Assay [1] concerns guinea pig ileum. Briefly: Isolated guinea pig gut constriction (Magnus, ileum). To be noted: allyl isothiocyanate 300 μM; pizotifen maleate 10 μM, ramosetron hydrochloride 0.3 μM; vs vehicle.
Assay [2] concerns guinea pig ileum. The assay is described as above. To be noted: for suppression of contraction upon stimulation with acrolein by serotonin receptor antagonists: acrolein 300 μM, pizotifen maleate 10 μM, ramosetron hydrochloride 0.3 μM, vs vehicle; for EC50: Cavia porcellus, read-out: EC50(μM) †; for Action: Magnus (guinea pig ileum). The method, then: Guinea pigs (Hartley strain, male, weighing 300-400 g), under ether anesthesia, were exsanguinated to death by cutting the carotid artery. The ileum was extirpated, about 15-cm portions at both ends were removed, a section 1.5 cm long was cut out from the remaining portion, and incisions were made longitudinally parallelly in the gut to prepare a tabular specimen. This specimen was sandwiched with serrefine at both ends, and suspended with a thread in a Magnus chamber containing 10 ml of a 37° C. Krebs solution (118 mM NaCl, 4.7 mM KCl, 2.5 mM CaCl2, 1.2 mM MgSO4, 1.2 mM KH2PO4, 11 mM D-glucose, 20 mM NaHCO3) aerated with 95% O2-5% CO2 mixed gas. A 1-g load was applied to the specimen, buffers were exchanged at 15-minute intervals, and the specimen was allowed to stand for about 60 minutes to stabilize its tension. Changes in the tension in response to agonist stimulation were measured isometrically, and recorded on a recorder. Acetylcholine, 10^−5 M, was administered to induce contraction of the ileum specimen; after the contraction maximized, the bath was washed three times to purge out the acetylcholine. This operation was repeated at 10-minute intervals, and after the induced contraction stabilized two consecutive times, each test substance was administered. By comparing the contractile forces produced by acetylcholine and the test substance, the effect of the test substance was evaluated. One specimen was investigated only at one concentration of the test substance. […] From the results above, it was shown that the TRPA1 activator induced gut contraction.
The serotonin receptor antagonists used were pizotifen maleate (10 μM), a 5-HT1,2 receptor antagonist, ketanserin tartrate (0.1 μM), a 5-HT2 receptor antagonist, ramosetron hydrochloride (0.3 μM), a 5-HT3 receptor antagonist, and GR113808 (0.3 μM), a 5-HT4 receptor antagonist.
The inhibitory actions of various serotonin receptor antagonists on contraction upon stimulation with acrolein (300 μM) were investigated in the same manner. […] From the results above, it was shown that serotonin was released upon stimulation with acrolein to induce contraction via serotonin receptors such as 5-HT1 receptor and 5-HT3 receptor.

The subject of assay [3] is RIN14B cells. Briefly: Serotonin secretion from RIN14B cells (immunoassay). In kind it is cell-based, rat. The note with it: for serotonin secretion from RIN14B cells: 20 minutes culture. As for the experimental part: After RIN14B cells in culture in a Petri dish were detached using a PBS containing 1 mM EDTA, they were sown to a 96-well plate and cultured for 2 days. The medium used was RPMI1640 (Invitrogen Japan K.K.) supplemented with 10% fetal bovine serum (ICN), 100 U/ml penicillin, and 100 μg/ml streptomycin. After the cells were once washed with Hanks' Balanced Salt Solutions (HBSS, Invitrogen) supplemented with 0.1% BSA and 10 μM fluoxetine (TOCRIS), each TRPA1 activator, previously diluted/prepared with the above-described HBSS, was added, and the RIN14B cells were cultured at 37° C. in the presence of 5% CO2 for 20 minutes. After the cultivation, the cell supernatant was recovered, and stored under freezing. The serotonin content in the supernatant was measured using a commercially available serotonin immunoassay kit (Beckman).

In assay [4] the test system is RIN14B cells. Briefly: Channel activity in RIN14B cells using calcium-sensitive fluorescent reagent (FLIPR). In kind it is cell-based, rat. To be noted: for elevation of fluorescence intensity (calcium inflow) in RIN14B cells: Fluo3-AM. The method, then:
RIN14B cells (5×10^4 cells), wherein the expression of TRPA1 was confirmed in Example 10, were incubated in the presence of a calcium-sensitive fluorescent reagent (Fluo3-AM; DOJINDO) at 37° C. for 1 hour to thereby incorporate the calcium-sensitive fluorescent reagent in the cells, after which the cells were washed with physiological saline to remove the calcium-sensitive fluorescent reagent that had not been incorporated in the cells. To the cells obtained, physiological saline supplemented with allyl isothiocyanate, cinnamic aldehyde, or acrolein was added; the fluorescence emitted by the cells was measured over time. The above-described measurements were performed using an automated fluorescence detection apparatus (FLIPR; Molecular Device). […] Ruthenium Red was added concurrently and a measurement was performed to determine whether or not calcium inflow in the cells was be inhibited.

A further assay concerns rat EC cells. Briefly: Serotonin secretion from rat small intestine EC cells. In kind it is cell-based. To be noted: 45 minutes culture. As for the experimental part: A Wistar rat (male, 8-week-old) was decapitated and exsanguinated, after which it was dissected and laparotomized with scissors, and the small intestine was extirpated. The inside of the lumen of the extirpated small intestine was washed with physiological saline, and about 20 mL of Buffer A (70 mM NaCl, 5 mM KCl, 20 mM NaHCO3, 0.5 mM NaH2PO4, 50 mM HEPES (pH 7.2), 11 mM glucose, 3 mM EDTA, 0.5% BSA, 0.05 mM dithiothreitol, 1 mg/mL N-acetyl-L-cysteine) was injected, after which both ends were closed, and the small intestine was allowed to stand in 37° C. incubated HBSS for 10 minutes. Thereafter, the Buffer A in the lumen of the small intestine was discarded, about 20 mL of Buffer A was injected again, and the small intestine was allowed to stand in 37° C. incubated HBSS for 10 minutes. Again, the Buffer A in the lumen of the small intestine was discarded, fresh Buffer A was injected, and the small intestine was allowed to stand in 37° C. incubated HBSS for 20 minutes, after which the lumen content was recovered. […]
Serotonin secretion activity in EC cells prepared by the method described in Example 9-(3) was measured by a method modified from the method of Example 14 above. […]
The serotonin content in the supernatant was measured using a commercially available serotonin immunoassay kit (Beckman). […]

The subject of assay [5] is CHO-K1 cells not expressing the polypeptide shown by SEQ ID NO:2. Briefly: Intracellular calcium by FLIPR in negative control CHO-K1 cells. The class given is cell-based. To be noted: CHO-K1 cells not expressing TRPA1. (In general: Calcium flux is commonly read through the fluorescence of an indicator in the cells.)
Assay [6] concerns the target T1, human TRPA1 (polypeptide of SEQ ID NO:2) (Homo sapiens, UniProt O75762, K186N/R3C/R58T).
T1 construct: expressed in transfected cells; host or cells: CHO-K1 cells, transient transfection of the pcDNA3.1(+) human TRPA1 vector
Description: Intracellular calcium by FLIPR in CHO-K1 cells expressing human TRPA1 (activator screening). The class given is cell-based.
Description: To detect the TRPA1 channel activity of a polypeptide consisting of the amino acid sequence shown by SEQ ID NO:2, the expression vector obtained in Example 1 above was transfected to animal cells, whereby the aforementioned protein was expressed.
Various test samples were added to CHO-K1 cells forced to is transiently express TRPA1 by the transfection operation of Example 2 above, and the resulting changes in intracellular calcium concentration were measured using FLIPR (Molecular Device).
To measure the changes in intracellular calcium concentration by FLIPR, the following pre-treatment was performed. First, an assay buffer for adding the fluorescent dye Fluo3-AM (DOJIN) to the cells, or for washing the cells just before performing the FLIPR assay, was prepared. To a solution prepared by adding 20 ml of 1M HEPES (pH 7.4) (Invitrogen) to 1000 ml of HBSS (Invitrogen) (hereinafter, HBSS/HEPES solution), 10 ml of a solution prepared by dissolving 710 mg of probenecid (Sigma) in 5 ml of 1N NaOH and then adding 5 ml of the HBSS/HEPES solution, was added and mixed, and this solution was used as the assay buffer. Next, 50 μg of Fluo3-AM was dissolved in 22 μl of DMSO (DOJIN), and an equal volume of 20% pluronic acid (Molecular Probes) was added and mixed, after which this mixture was added to 10.6 ml of the assay buffer supplemented with 105 μl of fetal bovine serum, whereby a fluorescent dye solution was prepared. […] After this pretreatment was performed, changes in intracellular calcium concentration after addition of the various test samples were measured with the FLIPR.
Compounds that activate a polypeptide consisting of the amino acid sequence shown by SEQ ID NO:2 (activators) were screened for. As an index of activation, calcium inflow in the cells was detected using a calcium-sensitive fluorescent reagent; specifically, the method described in Example 3 was used.

The target in assay [7] is T1, human TRPA1 (polypeptide of SEQ ID NO:2). Description: TRPA1 inhibitor screening by FLIPR, calcium inflow after addition of cinnamic aldehyde. In kind it is cell-based. The note with it: read-out: inhibitory activity on the polypeptide of SEQ ID NO:2 in terms of IC50. As for the experimental part:
To measure the changes in intracellular calcium concentration by FLIPR, the following pre-treatment was performed. First, an assay buffer for adding the fluorescent dye Fluo3-AM (DOJIN) to the cells, or for washing the cells just before performing the FLIPR assay, was prepared. To a solution prepared by adding 20 ml of 1M HEPES (pH 7.4) (Invitrogen) to 1000 ml of HBSS (Invitrogen) (hereinafter, HBSS/HEPES solution), 10 ml of a solution prepared by dissolving 710 mg of probenecid (Sigma) in 5 ml of 1N NaOH and then adding 5 ml of the HBSS/HEPES solution, was added and mixed, and this solution was used as the assay buffer. […] After this pretreatment was performed, changes in intracellular calcium concentration after addition of the various test samples were measured with the FLIPR.
Compounds that inhibit a polypeptide consisting of the amino acid sequence shown by SEQ ID NO:2 (inhibitor) were screened for. Inhibitory activity was measured by performing detection of calcium inflow in the cells using a calcium-sensitive fluorescent reagent; specifically, the method described in Example 3 was used with a modification. […]

“Also recorded” adds a separate entry of the source. Counter-ions that a name gives are not always drawn.

The source of these data is US8034574B2, “Screening method for prokinetic agent” (Astellas Pharma Inc., priority 2006, dated 2011).

T1 sequence (O75762 whole entry R3C/R58T/K186N): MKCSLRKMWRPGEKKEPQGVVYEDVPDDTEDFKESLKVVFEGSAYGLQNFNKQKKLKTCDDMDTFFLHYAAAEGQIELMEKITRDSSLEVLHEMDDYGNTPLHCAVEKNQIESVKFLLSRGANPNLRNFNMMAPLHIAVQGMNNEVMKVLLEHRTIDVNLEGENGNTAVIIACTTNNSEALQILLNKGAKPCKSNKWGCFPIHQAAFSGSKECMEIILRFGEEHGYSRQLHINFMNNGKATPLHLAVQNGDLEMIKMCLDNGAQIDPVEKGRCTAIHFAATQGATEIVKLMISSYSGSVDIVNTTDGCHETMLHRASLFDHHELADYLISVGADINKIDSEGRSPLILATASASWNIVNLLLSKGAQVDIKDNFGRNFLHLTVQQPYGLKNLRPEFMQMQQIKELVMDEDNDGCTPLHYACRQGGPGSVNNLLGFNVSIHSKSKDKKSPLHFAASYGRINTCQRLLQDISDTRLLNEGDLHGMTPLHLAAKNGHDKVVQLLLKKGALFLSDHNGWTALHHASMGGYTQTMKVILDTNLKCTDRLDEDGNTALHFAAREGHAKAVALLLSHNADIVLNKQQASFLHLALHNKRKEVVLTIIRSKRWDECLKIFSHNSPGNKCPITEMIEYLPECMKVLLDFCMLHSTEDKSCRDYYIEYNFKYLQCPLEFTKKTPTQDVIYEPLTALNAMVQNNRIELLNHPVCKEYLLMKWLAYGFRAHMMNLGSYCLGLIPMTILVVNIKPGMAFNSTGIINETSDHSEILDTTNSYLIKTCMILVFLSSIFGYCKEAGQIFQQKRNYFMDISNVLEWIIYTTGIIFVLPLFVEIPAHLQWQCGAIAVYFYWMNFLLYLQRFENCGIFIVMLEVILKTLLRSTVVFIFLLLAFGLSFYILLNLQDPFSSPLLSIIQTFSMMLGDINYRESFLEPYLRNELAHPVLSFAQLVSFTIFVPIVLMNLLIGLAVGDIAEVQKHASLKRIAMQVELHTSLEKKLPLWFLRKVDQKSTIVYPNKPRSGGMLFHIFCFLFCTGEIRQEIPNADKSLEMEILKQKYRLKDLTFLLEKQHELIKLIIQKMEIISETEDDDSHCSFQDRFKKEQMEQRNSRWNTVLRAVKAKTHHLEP

Turning to `Cn1cc(C(=O)[C@@H]2CCc3nc[nH]c3C2)c2ccccc21` [ramosetron hydrochloride], the “suppression of contraction upon stimulation with allyl isothiocyanate by serotonin receptor antagonists” value in the assay with guinea pig ileum [1] is reported as “about 74%”. Besides, the “suppression of contraction upon stimulation with acrolein by serotonin receptor antagonists” value with guinea pig ileum [2] is “about 84%”.

What is called EC50 is the midpoint of the concentration-response curve. Take `O=C/C=C/c1ccccc1` [cinnamic aldehyde]: the “serotonin secretion from RIN14B cells” value in the assay on RIN14B cells [3] is given as “serotonin secretion was promoted; also recorded: concentration-dependently promoted the release of serotonin”. The “elevation of fluorescence intensity (calcium inflow) in RIN14B cells” value in the assay on RIN14B cells [4] (RIN14B cells) is given as “an elevation of fluorescence intensity was detected”. In the assay on guinea pig ileum [2], the EC50 was found to be 88.3 µM and the Action entry is “Contraction”. Also, the “serotonin secretion from rat EC cells” value in the assay on rat EC cells is given as “significant serotonin secretion promoting activity was observed; also recorded: promoted the release of serotonin from the EC cells”. Besides, the “elevation of fluorescence intensity in negative control cells” value in assay [5] is “none of these compounds produced an elevation of fluorescence intensity”.

On to `C=CC=O` [acrolein], for which the “serotonin secretion from RIN14B cells” value in the assay on RIN14B cells [3] is recorded as “serotonin secretion was promoted; also recorded: concentration-dependently promoted the release of serotonin”. The “elevation of fluorescence intensity (calcium inflow) in RIN14B cells” value in the assay with RIN14B cells [4] (RIN14B cells) is recorded as “an elevation of fluorescence intensity was detected”. The EC50 in assay [6] came to 7 µM. Besides, in assay [6] (CHO-K1 cells expressing human TRPA1, FLIPR, Fluo3-AM), the “change in intracellular calcium concentration” value was “responded specifically (elevation of intracellular calcium concentration)”. Moreover, in the assay with guinea pig ileum [2], the EC50 came out at 70.3 µM and the Action entry is listed as “Contraction”. The “concentration at which constrictive action was observed” value with guinea pig ileum [2] (tested at 10, 30, 100, 300 μM) is no less than 10 µM. Further, in assay [5], the “elevation of fluorescence intensity in negative control cells” value is listed as “none of these compounds produced an elevation of fluorescence intensity”.

For orientation: IC50 means the point on the concentration scale where inhibition reaches its midpoint. As for `N.N.N.N.N.N.N.N.N.N.N.N.N.N.[Cl-].[Cl-].[Cl-].[Cl-].[Cl-].[Cl-].[O-2].[O-2].[Ru+3].[Ru+3].[Ru+4]` [Ruthenium Red], the “inhibition of acrolein-induced serotonin secretion” value in the assay with RIN14B cells [3] (30 μM Ruthenium Red, acrolein 30 μM) came out at 73.0%. Besides, the “suppression of cinnamic aldehyde-induced serotonin secretion” value with RIN14B cells [3] (Ruthenium Red 30 μM, cinnamic aldehyde 30 μM) is listed as “completely suppressed”. In the assay on RIN14B cells [4] (30 μM Ruthenium Red, RIN14B cells), the “inhibition of activation by allyl isothiocyanate” value amounted to 90.9%. The “inhibition of activator-induced elevation of fluorescence intensity” value in the assay on RIN14B cells [4] (added concurrently with allyl isothiocyanate, cinnamic aldehyde or acrolein) is reported as “the elevation of fluorescence intensity was inhibited”. Besides, the “suppression of contraction upon stimulation with allyl isothiocyanate by TRPA1 inhibitor” value in the assay with guinea pig ileum [2] (Ruthenium Red 30 μM for 15 minutes, allyl isothiocyanate 300 μM, vs vehicle-applied specimen) is “about 84%”. Besides, in assay [7], the IC50 was 2.2 µM.

For pizotifen maleate, in the assay on guinea pig ileum [1], the “suppression of contraction upon stimulation with allyl isothiocyanate by serotonin receptor antagonists” value is “about 44%”. Further, the “suppression of contraction upon stimulation with acrolein by serotonin receptor antagonists” value in the assay on guinea pig ileum [2] is recorded as “about 74%”.
